The nature of series [1]: Blood-brain barrier permeability by LC/MS-MS after carotid artery injection. The series is classed as in vivo, mouse. Particulars: for concentration at 5 min: male, Casp6-expressing transgenic mice, mouse, in vivo. The protocol:
Only males were used and littermates from each genotype (wild type (WT)/WT, WT/Cre, & knock-in (KI/)Cre) were tested together. The experimenter was blind to genotype and treatment groups. Mice were administered 20 mg/kg NWL-117 or physiological saline (0.9% NaCl) by intraperitoneal injections two times 48 h apart. […] Blood brain barrier permeability of NWL-117 caspase inhibitor: Briefly, 18–22 month old Casp6 mice were anesthetised with isoflurane, warmed with a heating blanket, and their physiological vitals (heart rate, body temperature, and respiration) monitored. The skin over the mouse’s neck was shaved, xylocaine applied, and an incision was made along the midline. Under a surgical microscope, the right carotid artery was gently separated from surrounding tissue. Two suture threads were placed at the proximal and distal ends of the carotid, and a small incision was made along the carotid wall. A micro-catheter (attached to a 1 ml syringe controlled by a micropump) was inserted and pushed to the entrance of the internal carotid artery. The catheter was secured in place using suture thread. NWL-117 (20 mg/kg) was infused via the micro-catheter using a pump set at 50 μL/min (total volume between 64 μL and 130 μL). After 5 min, blood was collected by intra-cardiac puncture, the mouse was perfused through the heart with ice cold saline for 2–3 min. The brain was removed and hippocampi were dissected and frozen on dry ice and stored. Samples were sent to the Biopharmacy platform at the University of Montreal (Quebec, Canada) for liquid chromatography and tandem mass spectrometry analysis. The integrity of the blood-brain barrier was confirmed by injecting 3% Evan’s blue solution in 20 month old Casp6 mice. Mouse cognitive analysis by novel object recognition: Mice were handled during 5 min for one week prior to behavioral tests. Novel object recognition (NOR) task was administered in three phases: habituation, familiarization (pre-exposure), and test phase. For habituation, mice were placed in the NOR box (80 cm x 80 cm, Stoelting Co, Wood Dale, IL, USA) for 5 min. After 24 h, the pre-exposure phase was initiated by allowing the animals to explore two identical objects inside the NOR box. Then, following a 2 h gap, mice were re-introduced to the NOR box which now contained a familiar and a novel object. The position of the novel object was counterbalanced between animals to avoid any bias related to a preference in the location of the new object and the use of potential confounding spatial cues. The objects were located in the middle of the NW and SE quadrants of the box, equidistantly from the box corners and from each other. The mice were placed in the middle of the SW quadrant. Washing the box and objects with 70% ethanol eliminated odour cues. The number of times touching each object was manually recorded, while the total distance, percent time moving, and number of entries into virtual cells were recorded using the HVS 2100 automated video tracking system (HVS Image, Buckingham, UK). Animals whose exploration was considered insufficient to allow recognition (<10 s per object) during the familiarization phase were excluded from analysis. Different object sets were used in the pre- and post-tests. Immunohistochemistry on mouse brain slices: Following behavioural analysis, animals were anaesthetized under isoflurane and perfused intracardially with ice cold saline for 7 min and 4% paraformaldehyde for 20 min. […]

Series [2] concerns Casp6-overexpressing KI/Cre mice. Briefly: Novel object recognition task in Casp6-overexpressing KI/Cre mice. The series is classed as in vivo, mouse. Particulars: 20 mg/kg i.p. The protocol:
Casp6 transgenic mouse model: All animal procedures followed the Canadian Council on Animal Care guidelines and were approved by the McGill Animal care committees. Sixteen to 20 month old C57BL/6 J mice were bred and aged in the pathogen-free Goodman Cancer Research Centre Mouse Transgenic Facility at McGill University. Mice were housed in a temperature-controlled room at 22 °C and were kept on a 12 h light/dark cycle. Food and water were available at libitum. Casp6 overexpressing mice (KI/Cre) express Casp6p20p10 under the CAG promoter (CMV immediate early enchancer/chicken β-actin promoter fusion) in the CA1 pyramidal cell layer of the hippocampus under the control of calmodulin kinase IIa (CAMKIIa)-regulated Cre expression.
Only males were used and littermates from each genotype (wild type (WT)/WT, WT/Cre, & knock-in (KI/)Cre) were tested together. The experimenter was blind to genotype and treatment groups. Mice were administered 20 mg/kg NWL-117 or physiological saline (0.9% NaCl) by intraperitoneal injections two times 48 h apart. […] Blood brain barrier permeability of NWL-117 caspase inhibitor: Briefly, 18–22 month old Casp6 mice were anesthetised with isoflurane, warmed with a heating blanket, and their physiological vitals (heart rate, body temperature, and respiration) monitored. The skin over the mouse’s neck was shaved, xylocaine applied, and an incision was made along the midline. Under a surgical microscope, the right carotid artery was gently separated from surrounding tissue. Two suture threads were placed at the proximal and distal ends of the carotid, and a small incision was made along the carotid wall. A micro-catheter (attached to a 1 ml syringe controlled by a micropump) was inserted and pushed to the entrance of the internal carotid artery. The catheter was secured in place using suture thread. […] The number of times touching each object was manually recorded, while the total distance, percent time moving, and number of entries into virtual cells were recorded using the HVS 2100 automated video tracking system (HVS Image, Buckingham, UK). […]

Setting [3] is: Casp6 mice, 20 mg/kg carotid artery injection, 5 min, one value per animal, 20 mg/kg.

Where “and” joins values, the source holds several entries; their conditions need not be identical. Equal entries are not always repeated.

Regarding `CCC(C)[C@H](NC(=O)[C@H](CCC(=O)O)NC(=O)[C@@H](NC(=O)OCc1ccccc1)C(C)C)C(=O)N[C@H](/C=C/S(C)(=O)=O)CC(=O)O` (some centres unmarked) [NWL-117], in series [1] (setting [3]), the Hippocampus concentration is 193 nM and 816 nM and 67.9 nM and 356 nM and 879 nM; the Plasma concentration is 48.521 µM and 3.416 µM and 8.998 µM and 7.408 µM and 25.425 µM; the “Ratio of [hippocampal]/[plasma]” value was 0.004 and 0.239 and 0.008 and 0.048 and 0.035. The molecule also yielded a concentration at 5 min in series [1] of 3.4 to 48 µM. In addition, the concentration at 5 min in series [1] (20 mg/kg) fell in the range of 0.0679 to 0.879 µM. Also, the “locomotor or exploratory activities” value in series [2] (two injections) is listed as “no effect”. The “NOR performance in KI/Cre mice” value in series [2] (two injections 48 h apart) was “regained normal NOR performance”. For the same molecule, the “NOR performance in control mice” value in series [2] (two injections 48 h apart, WT/WT and WT/Cre) is on record as “performed equally to saline-treated mice”.

(Values after article PMC5329948, “Caspase vinyl sulfone small molecule inhibitors prevent axonal degeneration in human neurons and reverse cognitive impairment in Caspase-6-overexpressing mice” (Molecular Neurodegeneration, 2017).)
